{"source": "patent US11648211B2", "about": "“Nanoencapsulated combination drug formulations” (priority 2019, dated 2023)", "origin": "cited, not measured here", "system": "spontaneous breast cancer", "note": "Where two headings read alike, the source gives them in different places."}
{"smiles": "Cn1ncnc1[C@H]1c2n[nH]c(=O)c3cc(F)cc(c23)N[C@@H]1c1ccc(F)cc1", "note": "[TLZ, Talazoparib]", "values": [{"measurement": "animals with alopecia", "setting": "i.v.", "result": 25, "unit": "%"}, {"measurement": "animals with alopecia", "setting": "oral", "result": 25, "unit": "%"}]}
